Experimental data taken from ChEMBL document CHEMBL6083292, “Discovery of Novel N-Sulfonamide-tetrahydroquinolines as Potent Retinoic Acid Receptor-Related Orphan Receptor γt (RORγt) Inverse Agonists for the Treatment of Psoriasis” (J Med Chem, 2024).
Blank lines part the entries; values can stand above or below the compound they belong to. The source made the active and inactive calls. The calls are words filed in the database; no cut-off is given here.

Key:
[1] = biological target: T1, Nuclear receptor ROR-gamma (Homo sapiens, UniProt P51449); assay: Inverse agonist activity at APC-labeled RORgammat LBD (unknown origin) assessed as inhibition of europium-labeled SRC-1 recruitment incubated for 1 hrs by dual FRET assay
T1 sequence (P51449 whole entry): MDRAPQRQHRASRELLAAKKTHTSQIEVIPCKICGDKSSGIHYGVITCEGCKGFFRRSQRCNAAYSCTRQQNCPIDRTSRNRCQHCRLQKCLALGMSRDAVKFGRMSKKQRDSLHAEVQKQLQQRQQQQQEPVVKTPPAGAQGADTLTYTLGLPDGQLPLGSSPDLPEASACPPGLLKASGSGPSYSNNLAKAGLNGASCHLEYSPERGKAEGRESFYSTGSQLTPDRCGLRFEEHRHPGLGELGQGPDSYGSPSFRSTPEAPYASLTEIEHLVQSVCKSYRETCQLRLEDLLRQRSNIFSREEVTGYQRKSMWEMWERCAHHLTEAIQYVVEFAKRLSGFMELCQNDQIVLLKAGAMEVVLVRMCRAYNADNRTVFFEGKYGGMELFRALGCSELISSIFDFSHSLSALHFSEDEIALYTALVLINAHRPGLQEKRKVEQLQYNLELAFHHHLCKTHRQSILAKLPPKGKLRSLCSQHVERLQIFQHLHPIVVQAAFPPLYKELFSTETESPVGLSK

[2] = tested on: Mus musculus; assay: Antiinflammatory activity against imiquimod-induced psoriasis BALB/c mouse model at 4 % administered topically as ointment once a day for 11 days; format: functional, organism-based; settings: time 11.0 day
[3] = Toxicity in BALB/c mouse assessed as change in body weight at 4 % administered topically as ointment once a day for 11 days; settings: in vivo, topical_or_ocular, 264 h, time 11 day
[4] = tested on: Mus musculus; assay: Anti-inflammatory activity in imiquimod-induced BALB/c mouse psoriasis model assessed as appearance of clear sebaceous gland at 4 % administered topically as ointment once a day for 11 days by H and E staining based analysis; format: functional, organism-based; settings: time 11.0 day
[5] = Drug concentration in pig ear assessed as retention rate at 0.0090 g administered intradermally as 4 % ointment measured at 12 hrs; format: ADME, tissue-based, Sus scrofa; settings: in vivo, other
[6] = Drug concentration in BALB/c mouse plasma at 4 % administered topically as ointment measured at 10 mins; format: ADME, cell-free; settings: topical or ocular
[7] = Drug concentration in pig ear assessed as retention rate at 0.0086 g administered intradermally as 4 % ointment measured at 12 hrs; format: ADME, tissue-based, Sus scrofa; settings: in vivo, other
[8] = Acute toxicity in BALB/c mouse assessed as signs of mortality at 10 to 20 % administered topically as ointment once a day for 12 days; settings: in vivo, topical_or_ocular, 288 h, dose 10-20 %, time 12 day
[9] = tested on: Mus musculus; assay: Antiinflammatory activity against imiquimod-induced psoriasis BALB/c mouse model assessed as change in ear thickness at 100 mg/kg, ip qd for 7 days; format: functional, organism-based; settings: time 7.0 day
[10] = Toxicity in BALB/c mouse assessed as change in body weight at 0.25 to 4 % administered topically as ointment once a day for 11 days; settings: in vivo, topical_or_ocular, 264 h, dose 0.25-4 %, time 11 day
[11] = Inhibition of mouse Th17 cells differentiation from CD4+ T cells flow cytometric analysis
[12] = tested on: Mus musculus; assay: Anti-inflammatory activity in imiquimod-induced BALB/c mouse psoriasis model assessed as reduction in dermal inflammatory cell infiltration at 4 % administered topically as ointment once a day for 11 days by H and E staining based analysis; format: functional, organism-based; settings: time 11.0 day
[13] = tested on: Mus musculus; assay: Anti-inflammatory activity in imiquimod-induced BALB/c mouse psoriasis model assessed as appearance of clear hair follicle at 4 % administered topically as ointment once a day for 11 days by H and E staining based analysis; format: functional, organism-based; settings: time 11.0 day
[14] = tested on: Mus musculus; assay: Antiinflammatory activity against imiquimod-induced psoriasis BALB/c mouse model assessed as body weight at 100 mg/kg, ip qd for 7 days; format: functional; settings: time 7 day
[15] = tested on: Mus musculus; assay: Antiinflammatory activity against imiquimod-induced psoriasis BALB/c mouse model assessed as effect on spleen enlargement at 100 mg/kg, ip qd for 7 days; format: functional, organism-based; settings: time 7.0 day
[16] = tested on: Mus musculus; assay: Antiinflammatory activity against imiquimod-induced psoriasis BALB/c mouse model assessed as reduction in body weight at 100 mg/kg, ip qd for 7 days; format: functional; set-up: scale not given: the % may be the effect or the level left; settings: time 7 day
[17] = tested on: Mus musculus; assay: Antiinflammatory activity against imiquimod-induced psoriasis BALB/c mouse model assessed as change in ear erythema score at 100 mg/kg, ip qd for 7 days; format: functional, organism-based; settings: time 7.0 day
[18] = Drug concentration in BALB/c mouse plasma at 4 % administered topically as ointment measured at 2 hrs; format: ADME, cell-free; settings: topical_or_ocular
[19] = Acute toxicity in BALB/c mouse assessed as body weight gain at 10 to 20 % administered topically as ointment once a day for 12 days; settings: in vivo, topical_or_ocular, 288 h, dose 10-20 %, time 12 day
[20] = Metabolic stability in CD-1 mouse liver microsomes assessed as half life preincubated for 5 mins followed by NADPH addition and measured upto 60 mins by LC-MS/MS analysis; format: ADME, Microsome; settings: time < 65 min
[21] = tested on: Mus musculus; assay: Anti-inflammatory activity in imiquimod-induced BALB/c mouse psoriasis model assessed as appearance of smooth skin at 4 % administered topically as ointment once a day for 11 days by H and E staining based analysis; format: functional, organism-based; settings: time 11.0 day
[22] = tested on: Mus musculus; assay: Antiinflammatory activity against imiquimod-induced psoriasis BALB/c mouse model at 1 to 4 % administered topically as ointment once a day for 11 days; format: functional, organism-based; settings: time 11.0 day
[23] = Acute toxicity in BALB/c mouse assessed as signs of morbidity at 10 to 20 % administered topically as ointment once a day for 12 days; settings: in vivo, topical_or_ocular, 288 h, dose 10-20 %, time 12 day
[24] = Drug concentration in pig ear assessed as retention amount at 0.0094 g administered intradermally as 4 % ointment measured at 12 hrs; format: ADME, tissue-based, Sus scrofa; settings: in vivo, other
[25] = tested on: Mus musculus; assay: Antiinflammatory activity against imiquimod-induced psoriasis BALB/c mouse model at 0.25 to 4 % administered topically as ointment once a day for 11 days; format: functional, organism-based; settings: dose 0.25-4 %, time 11.0 day
[26] = Metabolic stability in CD-1 mouse liver assessed as intrinsic clearance preincubated for 5 mins followed by NADPH addition and measured upto 60 mins by LC-MS/MS analysis; format: ADME, tissue-based; settings: time < 65 min, read-out: CLH
[27] = Drug concentration in pig ear assessed as retention amount at 0.0090 g administered intradermally as 4 % ointment measured at 12 hrs; format: ADME, tissue-based, Sus scrofa; settings: in vivo, other
[28] = Metabolic stability in CD-1 mouse microsomes assessed as intrinsic clearance preincubated for 5 mins followed by NADPH addition and measured upto 60 mins by LC-MS/MS analysis; format: ADME, Microsome; settings: time < 65 min, read-out: CLH
[29] = tested on: Mus musculus; assay: Anti-inflammatory activity in imiquimod-induced BALB/c mouse psoriasis model assessed as improvement in spinous cell layer at 4 % administered topically as ointment once a day for 11 days by H and E staining based analysis; format: functional, organism-based; settings: time 11.0 day
[30] = Drug concentration in pig ear assessed as retention rate at 0.0085 g administered intradermally as 4 % ointment measured at 12 hrs; format: ADME, tissue-based, Sus scrofa; settings: in vivo, other
[31] = Drug concentration in pig ear assessed as retention amount at 0.0085 g administered intradermally as 4 % ointment measured at 12 hrs; format: ADME, tissue-based, Sus scrofa; settings: in vivo, other
[32] = Drug concentration in pig ear assessed as retention rate at 0.0094 g administered intradermally as 4 % ointment measured at 12 hrs; format: ADME, tissue-based, Sus scrofa; settings: in vivo, other
[33] = Acute toxicity in BALB/c mouse at 20 % administered topically as ointment once a day for 12 days; settings: in vivo, topical_or_ocular, 288 h, time 12 day
[34] = biological target: Voltage-gated inwardly rectifying potassium channel KCNH2 (Homo sapiens, UniProt Q12809); assay: Inhibition of hERG at -80 mV holding potential measured for 2.5 mins; format: toxicity
[35] = Inhibition of mouse Th17 cells differentiation from CD4+ T cells assessed as maximum inhibition flow cytometric analysis relative to control; format: functional
[36] = tested on: Mus musculus; assay: Antiinflammatory activity against imiquimod-induced psoriasis BALB/c mouse model assessed as reduction in spleen to body weight ratio at 5 mg/kg, ip qd for 7 days; format: functional, organism-based; settings: time 7.0 day
[37] = tested on: Mus musculus; assay: Antiinflammatory activity against imiquimod-induced psoriasis BALB/c mouse model assessed as reduction in body weight at 5 mg/kg, ip qd for 7 days; format: functional; set-up: scale not given: the % may be the effect or the level left; settings: time 7 day
[38] = tested on: Mus musculus; assay: Antiinflammatory activity against imiquimod-induced psoriasis BALB/c mouse model assessed as body weight at 5 mg/kg, ip qd for 7 days; format: functional; settings: time 7 day

Chain of Voltage-gated inwardly rectifying potassium channel KCNH2 (Q12809 whole entry): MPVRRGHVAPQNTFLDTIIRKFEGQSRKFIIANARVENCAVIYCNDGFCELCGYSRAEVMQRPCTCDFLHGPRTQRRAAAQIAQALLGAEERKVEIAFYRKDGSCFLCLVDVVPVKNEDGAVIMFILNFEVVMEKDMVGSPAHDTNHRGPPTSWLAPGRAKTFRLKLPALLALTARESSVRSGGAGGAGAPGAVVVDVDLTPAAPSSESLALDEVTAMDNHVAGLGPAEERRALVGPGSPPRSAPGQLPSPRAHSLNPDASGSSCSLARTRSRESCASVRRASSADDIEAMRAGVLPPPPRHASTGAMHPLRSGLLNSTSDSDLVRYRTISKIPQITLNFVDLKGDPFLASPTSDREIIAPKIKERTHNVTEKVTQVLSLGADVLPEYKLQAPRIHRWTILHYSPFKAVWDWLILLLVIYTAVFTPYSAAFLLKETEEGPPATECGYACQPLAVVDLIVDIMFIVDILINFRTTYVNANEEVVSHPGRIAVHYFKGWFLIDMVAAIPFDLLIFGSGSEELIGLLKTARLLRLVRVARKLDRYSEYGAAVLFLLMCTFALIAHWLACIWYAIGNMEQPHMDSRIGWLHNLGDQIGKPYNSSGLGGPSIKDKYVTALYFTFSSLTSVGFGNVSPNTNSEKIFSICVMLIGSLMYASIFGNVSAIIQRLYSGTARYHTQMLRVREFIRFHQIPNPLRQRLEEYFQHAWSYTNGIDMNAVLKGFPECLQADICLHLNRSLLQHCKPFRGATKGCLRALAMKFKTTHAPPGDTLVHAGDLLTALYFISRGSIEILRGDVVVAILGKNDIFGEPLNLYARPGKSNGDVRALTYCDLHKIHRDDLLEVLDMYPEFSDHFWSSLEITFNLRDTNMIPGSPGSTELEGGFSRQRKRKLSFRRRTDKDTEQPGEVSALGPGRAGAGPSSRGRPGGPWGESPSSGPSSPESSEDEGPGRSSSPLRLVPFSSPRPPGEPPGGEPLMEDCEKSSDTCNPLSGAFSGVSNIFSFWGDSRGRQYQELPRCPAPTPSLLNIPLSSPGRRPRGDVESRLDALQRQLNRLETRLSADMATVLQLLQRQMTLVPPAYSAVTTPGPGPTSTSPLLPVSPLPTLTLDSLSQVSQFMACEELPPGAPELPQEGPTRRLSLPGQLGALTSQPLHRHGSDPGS

IC50 [1]: 1.4 µM
Compound: CC(=O)N1CCN(c2ccc3c(c2)CCCN3S(=O)(=O)N(C)Cc2ccc(C(O)(C(F)(F)F)C(F)(F)F)cc2)CC1

IC50 [1]: 4.9 µM
Compound: CN(Cc1ccccc1)S(=O)(=O)N1CCCc2cc(N3CCN(C(=O)C(F)(F)F)CC3)ccc21

IC50 [1]: 9.5 µM
Compound: CC(=O)N1CCN(c2ccc3c(c2)C(C)(C)CCN3S(=O)(=O)N(C)Cc2ccccc2)CC1

Compound: CCc1ccc(N(CC(C)C)S(=O)(=O)c2ccc(OCC3CCOCC3)c(CO)c2)cc1 [GSK2981278]
Activity [2]: Active
Activity [3]: Non-toxic

IC50 [1]: 0.648 µM
Compound: CN(Cc1ccccc1)S(=O)(=O)N1CCCc2cc(N3CC4(COC4)C3)ccc21

IC50 [1]: 0.097 µM
Compound: CC(=O)N1CCN(c2ccc3c(c2)N(S(=O)(=O)N(C)Cc2ccccc2)CCC3)CC1

Compound: CN(Cc1ccc(C(C)(C)C)cc1)S(=O)(=O)N1CCCc2cc(Nc3ccc4c(c3)CCCC4=O)ccc21
Activity [4]: Active
Drug uptake [5]: 3.27%
concentration at 10 min [6]: 75 ng/mL
Drug uptake [7]: 4.82%
Activity [8]: Non-toxic
Activity [9]: Active
Activity [10]: Non-toxic
IC50 [11]: 1.57 µM
Activity [12]: Active
Activity [13]: Active
Activity [14]: 2.41 g
Activity [15]: Active
Activity [16]: 13%
Activity [17]: Active
IC50 [1]: 0.094 µM
Drug uptake [18]: Not_active
Activity [19]: Non-toxic
half-life [20]: 18.2 min
Activity [21]: Active
Activity [22]: Active
Activity [23]: Non-toxic
Drug uptake [24]: 0.012 mg
Activity [25]: Active
CLint scaled [26]: 301 mL/min/kg
Drug uptake [27]: 0.012 mg
Activity [2]: Active
microsomal CLint [28]: 76 µL/min/mg
Activity [29]: Active
Drug uptake [30]: 5.79%
Drug uptake [31]: 0.019 mg
Drug uptake [32]: 5.22%
Activity [33]: Non-toxic
IC50 [34]: > 40 µM
Imax [35]: 95%

IC50 [1]: 27 µM
Compound: CC(=O)N1CCN(c2ccc3c(c2)CCCN3S(=O)(=O)N(C)Cc2ccc(C(F)(F)F)o2)CC1

IC50 [1]: 13.1 µM
Compound: CCc1ccc(N(C)S(=O)(=O)N2CCCc3cc(N4CCN(C(C)=O)CC4)ccc32)cc1

IC50 [1]: 27 µM
Compound: CC(=O)N1CCN(c2ccc3c(c2)CCCN3S(=O)(=O)N(C)C(C)c2ccc(F)cc2)CC1 (stereo not drawn)

IC50 [1]: 9.2 µM
Compound: CCc1ccc(S(=O)(=O)N2CCCc3cc(N4CCN(C(C)=O)CC4)ccc32)cc1

Compound: C[C@@H]1C[C@H]2[C@@H]3CCC4=CC(=O)C=C[C@]4(C)[C@@]3(F)[C@@H](O)C[C@]2(C)[C@@]1(O)C(=O)CO [DEXAMETHASONE]
Activity [36]: Active
Activity [37]: 18%
Activity [38]: 3.43 g

IC50 [1]: 6.6 µM
Compound: CC(=O)N1CCN(c2ccc3c(c2)CCCN3S(=O)(=O)N(C)Cc2ccc(SC(F)(F)F)cc2)CC1

IC50 [1]: 0.29 µM
Compound: CN(Cc1ccc(C(C)(C)C)cc1)S(=O)(=O)N1CCCc2cc(N3CCC(C(=O)O)CC3)ccc21

IC50 [1]: 3.3 µM
Compound: CN(Cc1ccccc1)S(=O)(=O)N1CCCc2cc(N3CCN(C(=O)C4CCCC4)CC3)ccc21

IC50 [1]: 13 µM
Compound: CN(Cc1ccccc1)S(=O)(=O)N1CCCc2cc(N3CCN(C(=O)C4CCC4)CC3)ccc21

IC50 [1]: 7.6 µM
Compound: CC(=O)c1ccc(Nc2ccc3c(c2)CCCN3S(=O)(=O)N(C)Cc2ccccc2)cc1

Compound: CC(=O)N1CCN(c2ccc(CN(C3CCC3)S(=O)(=O)Cc3ccccc3)cc2)CC1
Imax [35]: 90.1%

IC50 [1]: 19.1 µM
Compound: CN(Cc1ccccc1)S(=O)(=O)N1CCCc2cc(N3CC4(CCOCC4)C3)ccc21

IC50 [1]: 0.021 µM
Compound: CC(=O)N1CCN(c2cc(F)c3c(c2)CCCN3S(=O)(=O)N(C)Cc2ccccc2)CC1

IC50 [1]: 6.8 µM
Compound: CN(Cc1ccccc1)S(=O)(=O)N1CCCc2cc(N3CCN(C(=O)C4CCOCC4)CC3)ccc21

IC50 [1]: 18.6 µM
Compound: CN(Cc1ccccc1)S(=O)(=O)N1CCCc2cc(N3CCN(C(=O)C4CCOC4)CC3)ccc21 (stereo not drawn)
